Test results as given in patent US20250129430A1, “HIGH ATP-AFFINITY PROTEIN AS THERAPEUTIC TARGET FOR INTRACTABLE CANCER MOLECULAR SUBTYPES AND INHIBITOR THEREOF” (VeraVerse Co., Ltd., priority 2021, published 2025).

Legend:
Assay in all cases: Cell viability drug screen, 12-point dose-response AUC
Assay type in all cases: cell-based, human
FU97 = system: FU97; design: Average Area Under the Viability Curve (AUC), AUC norm value: scale not given here; conditions: FU97 cells, 72 hours
Outline: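 Trapezoidal AUC of a 12-point, DMSO-normalized dose-response curve. Luminescent viability was measured after 72 h of exposure at 37° C to half-log serial dilutions (0.5% DMSO control), dosed 24 h after plating FU97 cells at 5×10^3 per well.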

NCC24 = NCC24 cells, 72 hours
Outline: (§1)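 Luminescent viability readings, taken 15 min after reagent addition at room temperature, were normalized to the 0.5% DMSO control to build 12-point dose-response curves. Trapezoidal integration gave the AUC. Cells had been plated at 5×10^3 per well and then exposed to half-log dilutions for 72 h.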

AGS = conditions: 72 hours; for Average Area Under the Viability Curve (AUC), AUC norm value: AGS cells (non-SEM subtype)
Outline: (§2)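 Gastric cancer lines seeded 5×10^3 cells/well, dosed after 24 h with half-log 12-point compound dilutions (DMSO 0.5% control), then 72 h at 37 °C. Viability by luminescence, normalized to DMSO; AUC by trapezoidal method, averaged over repeats.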

SNU638 = SNU638 cells, 72 hours
Outline: as §1

MKN45 = conditions: 72 hours; for Average Area Under the Viability Curve (AUC), AUC norm value: MKN45 cells (non-SEM subtype)
Outline: as §2

SNU1750 = conditions: 72 hours; for Average Area Under the Viability Curve (AUC), AUC norm value: SNU1750 cells (SEM subtype)
Outline: as §1

NCC20 = NCC20 cells, 72 hours
Outline: as §1

YCC2 = YCC2 cells, 72 hours
Outline: as §1

OCUM1 = OCUM1 cells, 72 hours
Outline: as §1

MKN1 = MKN1 cells, 72 hours
Outline: as §1

MKN74 = MKN74 cells, 72 hours
Outline: as §2

SNU668 = conditions: 72 hours; for Average Area Under the Viability Curve (AUC), AUC norm value: SNU668 cells (SEM subtype)
Outline: as §1

SNU601 = SNU601 cells, 72 hours
Outline: as §1

SNU484 = conditions: 72 hours; for Average Area Under the Viability Curve (AUC), AUC norm value: SNU484 cells (SEM subtype)
Outline: as §1

KATO3 = KATO3 cells, 72 hours
Outline: as §1

NCC19 = NCC19 cells, 72 hours
Outline: as §1

SNU16 = SNU16 cells, 72 hours
Outline: as §1

SNU719 = SNU719 cells, 72 hours
Outline: as §2

YCC3 = YCC3 cells, 72 hours
Outline: as §1

Hs746T = conditions: 72 hours; for Average Area Under the Viability Curve (AUC), AUC norm value: Hs746T cells (SEM subtype)
Outline: as §1

NCC59 = NCC59 cells, 72 hours
Outline: as §1

SNU1967 = SNU1967 cells, 72 hours
Outline: as §1

SNU620 = SNU620 cells, 72 hours
Outline: as §1

SNU216 = conditions: 72 hours; for Average Area Under the Viability Curve (AUC), AUC norm value: SNU216 cells (non-SEM subtype)
Outline: as §2

SK4 = conditions: 72 hours; for Average Area Under the Viability Curve (AUC), AUC norm value: SK4 cells (SEM subtype)
Outline: as §1

SNU1 = SNU1 cells, 72 hours
Outline: as §1

YCC11 = conditions: 72 hours; for Average Area Under the Viability Curve (AUC), AUC norm value: YCC11 cells (SEM subtype)
Outline: as §1

MKN28 = MKN28 cells, 72 hours
Outline: as §1

NCI_N87 = NCI_N87 cells, 72 hours
Outline: as §1

Structure (SMILES): CN(C)Cc1c(C(=O)NCCOc2ccc(C(=O)NO)cc2)oc2ccccc12 [PCI-24781]
- Average Area Under the Viability Curve (AUC), AUC norm value (FU97): −1.786
- Average Area Under the Viability Curve (AUC), AUC norm value (NCC24): −0.2766
- Average Area Under the Viability Curve (AUC), AUC norm value (AGS): −1.161
- Average Area Under the Viability Curve (AUC), AUC norm value (SNU638): −0.06055
- Average Area Under the Viability Curve (AUC), AUC norm value (MKN45): 2.259
- Average Area Under the Viability Curve (AUC), AUC norm value (SNU1750): −1.499
- Average Area Under the Viability Curve (AUC), AUC norm value (NCC20): −1.065
- Average Area Under the Viability Curve (AUC), AUC norm value (YCC2): 0.00064
- Average Area Under the Viability Curve (AUC), AUC norm value (OCUM1): 0
- Average Area Under the Viability Curve (AUC), AUC norm value (MKN1): 0.6581
- Average Area Under the Viability Curve (AUC), AUC norm value (MKN74): 0.2128
- Average Area Under the Viability Curve (AUC), AUC norm value (SNU668): 0.53
- Average Area Under the Viability Curve (AUC), AUC norm value (SNU601): 0.6141
- Average Area Under the Viability Curve (AUC), AUC norm value (SNU484): 0.1533
- Average Area Under the Viability Curve (AUC), AUC norm value (KATO3): −0.2111
- Average Area Under the Viability Curve (AUC), AUC norm value (NCC19): 0.3282
- Average Area Under the Viability Curve (AUC), AUC norm value (SNU16): −1.233
- Average Area Under the Viability Curve (AUC), AUC norm value (SNU719): 1.428
- Average Area Under the Viability Curve (AUC), AUC norm value (YCC3): 0.8426
- Average Area Under the Viability Curve (AUC), AUC norm value (Hs746T): −0.03183
- Average Area Under the Viability Curve (AUC), AUC norm value (NCC59): 0.9766
- Average Area Under the Viability Curve (AUC), AUC norm value (SNU1967): −1.126
- Average Area Under the Viability Curve (AUC), AUC norm value (SNU620): −0.6966
- Average Area Under the Viability Curve (AUC), AUC norm value (SNU216): 0.03042
- Average Area Under the Viability Curve (AUC), AUC norm value (SK4): 0.451
- Average Area Under the Viability Curve (AUC), AUC norm value (SNU1): 0.3429
- Average Area Under the Viability Curve (AUC), AUC norm value (YCC11): −0.09531
- Average Area Under the Viability Curve (AUC), AUC norm value (MKN28): −0.378
- Average Area Under the Viability Curve (AUC), AUC norm value (NCI_N87): −0.3803

Structure (SMILES): CC(=O)O[C@H]1C(=O)[C@@]2(C)[C@H]([C@H](OC(=O)c3ccccc3)[C@]3(O)C[C@H](OC(=O)[C@H](O)[C@@H](NC(=O)c4ccccc4)c4ccccc4)C(C)=C1C3(C)C)[C@]1(OC(C)=O)CO[C@@H]1C[C@@H]2O [Paclitaxel (Taxol), Paclitaxel]
- area under the viability curve (AUC), normalized (FU97; 12-point dose-response): 0.989
- area under the viability curve (AUC), normalized (NCC24; 12-point dose-response): −1.616
- area under the viability curve (AUC), normalized (AGS; AGS cells, 12-point dose-response): −1.831
- area under the viability curve (AUC), normalized (SNU638; 12-point dose-response): −0.3898
- area under the viability curve (AUC), normalized (MKN45; MKN45 cells, 12-point dose-response): 1.473
- area under the viability curve (AUC), normalized (SNU1750; SNU1750 cells, 12-point dose-response): 0.811
- area under the viability curve (AUC), normalized (NCC20; 12-point dose-response): 0
- area under the viability curve (AUC), normalized (YCC2; 12-point dose-response): 0.5673
- area under the viability curve (AUC), normalized (OCUM1; 12-point dose-response): 2.909
- area under the viability curve (AUC), normalized (MKN1; 12-point dose-response): −1.258
- area under the viability curve (AUC), normalized (MKN74; 12-point dose-response): 0.186
- area under the viability curve (AUC), normalized (SNU668; SNU668 cells, 12-point dose-response): −0.02282
- area under the viability curve (AUC), normalized (SNU601; 12-point dose-response): −1.106
- area under the viability curve (AUC), normalized (SNU484; SNU484 cells, 12-point dose-response): −0.3604
- area under the viability curve (AUC), normalized (KATO3; 12-point dose-response): 5.3572
- area under the viability curve (AUC), normalized (NCC19; 12-point dose-response): 1.902
- area under the viability curve (AUC), normalized (SNU16; 12-point dose-response): −0.5105
- area under the viability curve (AUC), normalized (SNU719; 12-point dose-response): 4.877
- area under the viability curve (AUC), normalized (YCC3; 12-point dose-response): 3.81
- area under the viability curve (AUC), normalized (Hs746T; Hs746T cells, 12-point dose-response): 0.7342
- area under the viability curve (AUC), normalized (NCC59; 12-point dose-response): 3.637
- area under the viability curve (AUC), normalized (SNU1967; 12-point dose-response): 0.05016
- area under the viability curve (AUC), normalized (SNU620; 12-point dose-response): −1.998
- area under the viability curve (AUC), normalized (SNU216; SNU216 cells, 12-point dose-response): 2.148
- area under the viability curve (AUC), normalized (SK4; SK4 cells, 12-point dose-response): −0.872
- area under the viability curve (AUC), normalized (SNU1; 12-point dose-response): −1.778
- area under the viability curve (AUC), normalized (YCC11; YCC11 cells, 12-point dose-response): −0.8302
- area under the viability curve (AUC), normalized (MKN28; 12-point dose-response): −0.2731
- area under the viability curve (AUC), normalized (NCI_N87; 12-point dose-response): −1.013

Structure (SMILES): OC1(c2ccc(Cl)c(C(F)(F)F)c2)CCN(CCCC(c2ccc(F)cc2)c2ccc(F)cc2)CC1 [Penfluridol]
- Average Area Under the Viability Curve (AUC), AUC norm value (FU97): 0.09295
- Average Area Under the Viability Curve (AUC), AUC norm value (NCC24): 0.5023
- Average Area Under the Viability Curve (AUC), AUC norm value (AGS): −0.6917
- Average Area Under the Viability Curve (AUC), AUC norm value (SNU638): −1.32
- Average Area Under the Viability Curve (AUC), AUC norm value (MKN45): 0.9981
- Average Area Under the Viability Curve (AUC), AUC norm value (SNU1750): −0.03209
- Average Area Under the Viability Curve (AUC), AUC norm value (NCC20): −0.8471
- Average Area Under the Viability Curve (AUC), AUC norm value (YCC2): −0.07658
- Average Area Under the Viability Curve (AUC), AUC norm value (OCUM1): 0.2066
- Average Area Under the Viability Curve (AUC), AUC norm value (MKN1): −0.01646
- Average Area Under the Viability Curve (AUC), AUC norm value (MKN74): −1.133
- Average Area Under the Viability Curve (AUC), AUC norm value (SNU668): 0.00275
- Average Area Under the Viability Curve (AUC), AUC norm value (SNU601): 0.6748
- Average Area Under the Viability Curve (AUC), AUC norm value (SNU484): −0.3957
- Average Area Under the Viability Curve (AUC), AUC norm value (KATO3): 0
- Average Area Under the Viability Curve (AUC), AUC norm value (NCC19): 0.6239
- Average Area Under the Viability Curve (AUC), AUC norm value (SNU16): −1.2587
- Average Area Under the Viability Curve (AUC), AUC norm value (SNU719): 0.3303
- Average Area Under the Viability Curve (AUC), AUC norm value (YCC3): 0.4477
- Average Area Under the Viability Curve (AUC), AUC norm value (Hs746T): 0.2822
- Average Area Under the Viability Curve (AUC), AUC norm value (NCC59): 0.3439
- Average Area Under the Viability Curve (AUC), AUC norm value (SNU1967): −0.08879
- Average Area Under the Viability Curve (AUC), AUC norm value (SNU620): 0.04726
- Average Area Under the Viability Curve (AUC), AUC norm value (SNU216): −0.5069
- Average Area Under the Viability Curve (AUC), AUC norm value (SK4): −0.5075
- Average Area Under the Viability Curve (AUC), AUC norm value (SNU1): 0.8479
- Average Area Under the Viability Curve (AUC), AUC norm value (YCC11): −0.5164
- Average Area Under the Viability Curve (AUC), AUC norm value (MKN28): −0.6097
- Average Area Under the Viability Curve (AUC), AUC norm value (NCI_N87): 0.3682
